The source of these data is patent US20120208750A1, “USE OF PROTEIN KINASE C DELTA (PKCD) INHIBITORS TO TREAT DIABETES, OBESITY, AND HEPATIC STEATOSIS” (JOSLIN DIABETES CENTER, INC., priority 2009, published 2012).

Holding throughout (format): in vivo, mouse
In experiment [1] the test system is PKCd. Put plainly: PKCd mRNA expression in streptozotocin diabetic mice and insulin- or phlorizin-rescued mice (qPCR). The note with it: STZ diabetic mice; rescue with s.c. insulin pellets or phlorizin 0.4 g/kg s.c. twice daily 10 days, FIG. 2F-G. On the procedure:
(§1) Expression of PKCd mRNA and protein was assayed in livers mice of various genotypes and under various conditions of diet. For all mRNA studies samples were prepared using RNeasy extraction kit according to the manufacturer protocol (QIAGEN), mRNA was measured by quantitative real-time PCR (qPRC), and results were normalized to TBP. For western blot analysis, 40-50 ug of each extract was loaded per lane. Each lane represents an individual animal. On a normal chow diet at 24 weeks of age, B6 mice have ˜60% higher levels of PKCd mRNA in liver than 129 mice (1.11±0.11 vs. 0.71±0.04, p<0.02) (FIG. 1A). […] These differences in PKCd messenger expression lead to similar differences in expression at the protein level when assessed by Western blot analysis of liver extracts (FIG. 1B). This difference in PKCd expression between B6 and 129 mice was also observed at 6 weeks of age (FIG. 1C), when 129 mice actually weigh slightly more than the B6 (22.1±0.5 vs. 19.8±0.3 g, p<0.001) and have identical glucose and insulin levels.
Streptozotocin treatment was performed as follows. Mice at 6 weeks of age received either daily i.p. injections of sodium citrate (pH 4.3) for controls or STZ (Sigma) resuspended in sodium citrate, 100 μg per g of body weight for three consecutive days. When these mice achieved fed glucose levels of >400 mg/dl for three consecutive days, they were separated into two equal groups. One group was not treated, while the other were treated with s.c. insulin pellets (LinShin, Toronto, ON, Canada), to obtain fed glucose levels of <200 mg/dl for at least three consecutive days. For phlorizin treatment of diabetic mice, male 8-week-old C57B1/6 mice were treated with a single intraperitoneal injection (200 μg/g body weight) of STZ (Sigma). PHZ (Sigma) was dissolved in a solution containing 10% ethanol, 15% DMSO, and 75% saline and was injected subcutaneously at a dose of 0.4 g/kg twice daily for 10 days from 8 days after the STZ injection. Control mice were injected with the same volume of vehicle.

The test system of experiment [2] is PKCd. As to the kind of experiment: PKCd mRNA expression in liver of leptin and/or insulin treated ob/ob mice (qPCR). The note with it: short-term infusion (osmotic pump 4 days; insulin pellets s.c.), FIG. 2C. As for the experimental part:
as §1
Although the difference in PKCd expression can be observed between B6 and 129 mice prior to the onset of obesity, obesity and insulin resistance also regulate PKCd. […]
In general terms: Quantitative PCR measures a nucleic acid by following its amplification.

For experiment [3], the system named is Bip. Put plainly: Western blot of liver protein expression in tunicamycin-treated mice (ER stress): Bip. The note with it: 1 μg/g i.p., 2, 4, 6 and 8 hours post-injection, FIG. 2E.
In experiment [4] the test system is PKCd. As to the kind of experiment: Western blot of liver protein expression in tunicamycin-treated mice (ER stress): PKCd. The note with it: 1 μg/g i.p., 2, 4, 6 and 8 hours post-injection, FIG. 2E. On the procedure: as §1
To induce an inflammation in vivo, mice were injected intraperitoneally with 100 μg LPS (Escherichia coli 55:B5; Sigma) or sterile saline as control. Mice were sacrificed 18 hours post-injection. […]
On the technique in general: A western blot detects proteins with antibodies after separation by electrophoresis.

Regarding `CN(N=O)C(=O)N[C@H]1C(O)O[C@H](CO)[C@@H](O)[C@@H]1O` (mixture of isomers) [STZ, streptozotocin], the “differences in PKCd expression vs control” value (from here on “differences”) in experiment [1] is “no differences”.
For `O=C(CCc1ccc(O)cc1)c1c(O)cc(O)cc1O[C@@H]1O[C@H](CO)[C@@H](O)[C@H](O)[C@H]1O` [phlorizin], the “differences” value in experiment [1] was “no differences”.
insulin: the “differences” value in experiment [1] is listed as “no differences”. The “reversal of increased expression of PKCd in liver” value in experiment [2] is recorded as “not reversed”.
tunicamycin: the “ER stress chaperone protein Bip expression in liver” value in experiment [3] is reported as “clearly induced”. Besides, the “PKCd protein expression in liver during onset of ER stress” value in experiment [4] is given as “did not observe any alterations”.

B1: leptin: recombinant mouse leptin delivered by osmotic pump (protein, UniProt P41160 22-167, looked up)
Leptin: VPIQKVQDDTKTLIKTIVTRINDISHTQSVSAKQRVTGLDFIPGLHPILSLSKMDQTLAVYQQVLTSLPSQNVLQIANDLENLRDLLHLLAFSKSCSLPQTSGLQKPESLDGVLEASLYSTEVVALSRLQGSLQDILQQLDVSPEC
With B1, the “reversal of increased expression of PKCd in liver” value in experiment [2] is “not reversed”.
